In data set [1] the test system is A431 cells. Summed up:
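In the PDT set-up, cells held at 2% O2 got 1 mM MAL with or without compound for 3 h, then 3 h recovery under 2% O2. Compound-alone cytotoxicity used cells seeded at 3×10^5/well for 24 h, treated for the relevant time.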

The test system of data set [2] is A431 cells. Put plainly: Mitochondrial reactive oxygen species generation during photodynamic irradiation, MitoSOX flow cytometry. The following applies: MAL 1 mM + co-treatment 10 μM, 3 hours, irradiated. The class given is cell-based, human. Summed up:
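A431 cells received AP39-C10 (10, 100 or 1000 nM) for 5 h, MAL (1 mM) for 3 h and MitoSOX (2.5 μM) for 1 h, then were irradiated for 5 min (630 nm, 25 J/cm^2). Mitochondrial oxidant production was read immediately as MitoSOX fluorescence by flow cytometry and expressed as percent of untreated controls.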

For data set [3], the target named is T1, thioredoxin reductase (Homo sapiens, UniProt Q16881).
T1 sequence (Q16881 151-649 limits assumed): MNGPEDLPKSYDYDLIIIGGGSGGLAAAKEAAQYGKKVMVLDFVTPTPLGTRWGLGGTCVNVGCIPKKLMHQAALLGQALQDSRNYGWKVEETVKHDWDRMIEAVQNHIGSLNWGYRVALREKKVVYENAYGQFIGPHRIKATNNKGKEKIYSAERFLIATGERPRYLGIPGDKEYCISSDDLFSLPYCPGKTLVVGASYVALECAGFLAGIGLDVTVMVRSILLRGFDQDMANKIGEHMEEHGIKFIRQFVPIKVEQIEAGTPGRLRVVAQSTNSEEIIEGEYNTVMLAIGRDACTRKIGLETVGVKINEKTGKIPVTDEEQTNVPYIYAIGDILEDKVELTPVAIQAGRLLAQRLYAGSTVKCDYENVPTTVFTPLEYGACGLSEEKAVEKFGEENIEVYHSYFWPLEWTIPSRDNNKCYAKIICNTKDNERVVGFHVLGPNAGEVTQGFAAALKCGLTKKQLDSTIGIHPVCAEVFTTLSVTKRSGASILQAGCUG
The following applies: cited from earlier work.

Data set [4] relates to A431 cells. The data set is described as follows: Photodynamic cell killing in the presence of inhibitors of the thioredoxin antioxidant system or nitroxides (annexin V-FITC/propidium iodide flow cytometry). The class given is cell-based, human.

Here are results for 1 compound from US10149907B2, “Combinations of a photosensitizer with a hydrogen sulfide donor, thioredoxin inhibitor or nitroxide for use in photodynamic therapy” (UNIVERSITY OF EXETER, priority 2014, dated 2018).

Where “and” joins values, the source holds several entries; their conditions need not be identical. Equal entries are not always repeated. Where two headings read alike, the source gives them in different places.

For the compound `O=[N+]([O-])c1ccc(Cl)c([N+](=O)[O-])c1` [DNCB, 1-chloro-2,4-dinitrobenzene], the “cell viability, percentage of untreated control” value in data set [1] (1 μM with 1 mM MAL, 3 hours) was 97.4±6.9%; in data set [1] (5 μM with 1 mM MAL, 3 hours), 99.4±7.3%; in data set [1] (10 μM with 1 mM MAL, 3 hours), 98.6±6.2%; in data set [1] (25 μM with 1 mM MAL, 3 hours) it was 79.0±4.3%; in data set [1] (50 μM with 1 mM MAL, 3 hours) it was 57.7±1.4%; in data set [1] (50 μM, 24 hours) it was 11.7±0.8%. In addition, in data set [1] (100 μM, 24 hours), the “cell viability, percentage of untreated control” value is 14.8±4.2%. The “concentration up to which well tolerated / no cytotoxicity” value in data set [1] (24 hours) is “up to 10 μM”. The “MitoSOX fluorescence, percentage of untreated cells” value in data set [2] was found to be 209.5±3.2%. The “inactivation of reduced thioredoxin reductase” value in data set [3] (50 nM reduced enzyme, 5 minutes incubation with 100 μM DNCB, presence of NAD(P)H) is given as “Complete inactivation”. In addition, in data set [3], the “inactivation of thioredoxin reductase faster than the alkylation of GSH” value is recorded as ~10,000 fold. In addition, the “modes of cell death” value in data set [4] (1 mM MAL + DNCB 10 μM or auranofin 100 nM + irradiation, compared to MAL and irradiation, FIG. 10) was “primarily increased necrotic cell death”. In data set [4] (1 mM MAL + co-treatment 10 μM, 3 h, irradiation), the cell death was 46.3±4.0% and 43.8±3.9%. Moreover, the “potentiating effect on MAL photodynamic cell killing” value in data set [4] (summary of Examples 2A, 3A) was “mild potentiating effect”.
